Assay results: PMC12155096 (International Journal of Molecular Sciences, 2025)
Structures can show the parent of a compound that is named as a salt. Where two headings read alike, the source gives them in different places.

Columns and labels:
[1] = molecular target: T1, human CYP2C9 (Homo sapiens, UniProt P11712); assay: biochemical
[2] = molecular target: T2, human CYP2C19 (Homo sapiens, UniProt P33261); assay: biochemical; details: for AC50: CYP2C19 AC50 (half-maximal activity concentration)
[3] = molecular target: T3, human CYP2D6 (Homo sapiens, UniProt P10635); assay: biochemical
[4] = molecular target: T4, human CYP1A2 (Homo sapiens, UniProt P05177)
T4 sequence (P05177 1-516): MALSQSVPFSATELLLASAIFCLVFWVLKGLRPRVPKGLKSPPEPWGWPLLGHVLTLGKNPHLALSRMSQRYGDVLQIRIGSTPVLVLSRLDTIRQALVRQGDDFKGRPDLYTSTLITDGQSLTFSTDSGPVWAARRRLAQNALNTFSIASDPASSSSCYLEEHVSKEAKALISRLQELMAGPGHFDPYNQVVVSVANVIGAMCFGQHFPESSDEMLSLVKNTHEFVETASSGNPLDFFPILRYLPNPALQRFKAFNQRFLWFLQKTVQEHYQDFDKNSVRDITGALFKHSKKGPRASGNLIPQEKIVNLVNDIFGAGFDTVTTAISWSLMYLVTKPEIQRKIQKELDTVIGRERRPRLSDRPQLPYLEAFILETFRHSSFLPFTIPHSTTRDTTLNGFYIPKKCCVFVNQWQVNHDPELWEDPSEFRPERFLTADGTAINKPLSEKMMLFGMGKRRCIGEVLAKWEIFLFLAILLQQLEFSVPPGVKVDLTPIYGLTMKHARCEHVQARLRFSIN

[5] = molecular target: T2, human CYP2C19; details: for CYP2C19 Efficacy (in parenthesis): human
[6] = molecular target: T4, human CYP1A2; assay: biochemical
[7] = molecular target: T1, human CYP2C9; details: human
[8] = molecular target: T3, human CYP2D6; details: human
[9] = CYP2C9 IC50 (half-maximal inhibitory concentration)
[10] = CYP2C19 IC50 (half-maximal inhibitory concentration)
[11] = CYP2D6 IC50 (half-maximal inhibitory concentration)
[12] = CYP2D6 AC50 (half-maximal activity concentration)
[13] = CYP2C9 AC50 (half-maximal activity concentration)

T1 sequence (P11712 whole entry): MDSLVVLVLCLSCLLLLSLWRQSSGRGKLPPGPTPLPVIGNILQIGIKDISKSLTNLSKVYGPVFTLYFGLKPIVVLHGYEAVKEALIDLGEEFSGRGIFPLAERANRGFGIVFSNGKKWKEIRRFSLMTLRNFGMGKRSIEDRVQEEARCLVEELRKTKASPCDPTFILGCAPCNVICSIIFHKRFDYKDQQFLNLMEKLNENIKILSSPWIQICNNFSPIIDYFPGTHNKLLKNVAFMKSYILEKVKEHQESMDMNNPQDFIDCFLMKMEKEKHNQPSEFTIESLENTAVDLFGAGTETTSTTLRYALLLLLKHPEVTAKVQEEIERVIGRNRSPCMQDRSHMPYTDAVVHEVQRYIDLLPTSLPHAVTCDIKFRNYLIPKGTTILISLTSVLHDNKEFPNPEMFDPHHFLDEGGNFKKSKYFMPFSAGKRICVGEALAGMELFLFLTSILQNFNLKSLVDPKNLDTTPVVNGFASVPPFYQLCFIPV
T2 sequence (P33261 whole entry): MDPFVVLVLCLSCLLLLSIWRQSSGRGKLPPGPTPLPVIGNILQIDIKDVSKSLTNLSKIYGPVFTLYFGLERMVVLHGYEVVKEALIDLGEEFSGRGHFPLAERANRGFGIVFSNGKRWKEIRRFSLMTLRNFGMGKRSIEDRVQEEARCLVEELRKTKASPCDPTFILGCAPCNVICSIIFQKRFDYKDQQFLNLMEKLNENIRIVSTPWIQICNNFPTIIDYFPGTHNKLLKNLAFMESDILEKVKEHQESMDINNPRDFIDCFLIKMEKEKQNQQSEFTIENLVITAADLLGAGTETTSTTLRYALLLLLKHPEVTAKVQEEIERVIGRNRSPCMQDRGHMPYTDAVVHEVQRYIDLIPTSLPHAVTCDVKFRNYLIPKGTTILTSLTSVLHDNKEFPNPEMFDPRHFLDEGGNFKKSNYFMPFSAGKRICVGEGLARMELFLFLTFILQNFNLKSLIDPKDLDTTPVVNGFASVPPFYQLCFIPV
T3 sequence (P10635 whole entry): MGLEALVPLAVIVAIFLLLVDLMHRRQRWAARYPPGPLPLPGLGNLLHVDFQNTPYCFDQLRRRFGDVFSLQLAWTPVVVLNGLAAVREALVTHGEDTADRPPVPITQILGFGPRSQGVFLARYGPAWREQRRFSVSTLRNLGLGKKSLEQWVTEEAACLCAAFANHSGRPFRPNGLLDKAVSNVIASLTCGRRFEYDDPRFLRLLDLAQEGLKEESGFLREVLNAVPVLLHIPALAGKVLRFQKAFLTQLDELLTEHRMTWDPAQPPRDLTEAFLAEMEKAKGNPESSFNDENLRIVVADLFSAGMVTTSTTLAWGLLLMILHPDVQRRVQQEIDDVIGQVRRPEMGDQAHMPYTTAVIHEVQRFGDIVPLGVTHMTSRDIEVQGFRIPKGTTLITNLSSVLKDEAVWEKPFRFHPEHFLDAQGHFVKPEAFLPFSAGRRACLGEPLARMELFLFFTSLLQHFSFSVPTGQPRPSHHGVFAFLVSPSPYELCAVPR

SMILES: CC1=C(C(=O)OC(C)C)C(c2cccc([N+](=O)[O-])c2)C(C(=O)OC2CN(C(c3ccccc3)c3ccccc3)C2)=C(N)N1 (stereo not drawn) [Azelnidipine]
- IC50 [1]: 1.56 ± 0.18 µM
- IC50 [2]: 2.43 ± 0.68 µM
- IC50 [3]: 13.2 ± 3.2 µM

SMILES: CCCCC(=O)O[C@]1(C(=O)CO)[C@@H](C)C[C@H]2[C@@H]3CCC4=CC(=O)C=C[C@]4(C)[C@@]3(F)[C@@H](O)C[C@@]21C [Betamethasone valerate]
- IC50 [1, 9]: 17.4 µM
- IC50 [2, 10]: 31.1 µM
- IC50 [3, 11]: 39.1 µM

SMILES: O=C1CC2(CCCC2)CC(=O)N1CCNCC1COc2ccccc2O1 (stereo not drawn) [Binospirone mesylate]
- IC50 [1]: 23.5 ± 5.69 µM
- IC50 [2]: 8.77 ± 1.42 µM
- IC50 [3]: 0.29 ± 0.02 µM

SMILES: Cc1cc2c(OCC(CNC(C)(C)C)OC(=O)c3ccccc3)cccc2[nH]1 (stereo not drawn) [Bopindolol]
- IC50 [1]: 6.95 ± 0.8 µM
- IC50 [2]: 23.9 ± 13 µM
- IC50 [3]: 0.64 ± 0.04 µM

SMILES: CCCC(=O)O[C@]1(C(=O)CCl)[C@@H](C)C[C@H]2[C@@H]3CCC4=CC(=O)C=C[C@]4(C)[C@@]3(F)C(=O)C[C@@]21C [Clobetasone butyrate]
- IC50 [1, 9]: 17.6 µM
- IC50 [2, 10]: 8.43 µM
- IC50 [3, 11]: 7.77 µM

SMILES: CN1CCC(=C2c3ccccc3C=Cc3ccccc32)CC1 [Cyproheptadine hydrochloride]
- AC50 [2]: 21.5 µM
- AC50 [3, 12]: 2.67 µM

SMILES: O=C(Nc1ccccc1)OCC(CN1CCCCC1)OC(=O)Nc1ccccc1 (stereo not drawn) [Diperodon hydrochloride]
- IC50 [1, 9]: 20.8 µM
- IC50 [2, 10]: 7.12 µM
- IC50 [3, 11]: 0.36 µM

SMILES: CCCCOc1ccc(C(=O)CCN2CCCCC2)cc1 [Dyclonine hydrochloride]
- AC50 [1, 13]: 14.5 µM
- AC50 [3, 12]: 6.92 µM

SMILES: CC(Cc1ccccc1)NCCn1cnc2c1c(=O)n(C)c(=O)n2C (stereo not drawn) [Fenethylline hydrochloride]
- IC50 [2, 10]: 85.1 µM
- IC50 [3, 11]: 5.37 µM

SMILES: O=C(CN1CCN(Cc2ccc3c(c2)OCO3)CC1)N1c2ccccc2Sc2ccccc21 [Fenoverine]
- IC50 [1, 9]: 18.9 µM
- IC50 [2, 10]: 40.7 µM
- IC50 [3, 11]: 0.46 µM

SMILES: CCC(=O)O[C@]1(C(=O)SCF)[C@H](C)C[C@H]2[C@@H]3C[C@H](F)C4=CC(=O)C=C[C@]4(C)[C@@]3(F)[C@@H](O)C[C@@]21C [Fluticasone propionate]
- IC50 [1, 9]: 4.84 µM
- IC50 [3, 11]: 13 µM

SMILES: N=C(N)NC(=O)Cc1c(Cl)cccc1Cl [Guanfacine hydrochloride]
- CYP1A2 AC50 (half-maximal activity concentration) [4]: Inactive
- CYP2C19 AC50 (half-maximal activity concentration) [5]: Inactive
- AC50 [1, 13]: 27.3 µM
- AC50 [3, 12]: 25.8 µM

SMILES: COc1cc(C(C)=O)ccc1OCCCN1CCC(c2noc3cc(F)ccc23)CC1 [Iloperidone]
- IC50 [1]: 22.9 ± 14.1 µM
- IC50 [3]: 10.1 ± 2.8 µM

SMILES: CN1CCC(=C2c3ccccc3CC(=O)c3sccc32)CC1 [Ketotifen]
- AC50 [2]: 37.5 µM
- AC50 [3, 12]: 2.2 µM

SMILES: COC(=O)C1=C(C)NC(C)=C(C(=O)OC(C)(C)CN(C)CCC(c2ccccc2)c2ccccc2)C1c1cccc([N+](=O)[O-])c1 (stereo not drawn) [Lercanidipine hydrochloride]
- IC50 [6]: 32.8 ± 2.67 µM
- IC50 [1]: 2.89 ± 0.52 µM
- IC50 [3]: 4.44 ± 1.02 µM

SMILES: O=C(O)c1nn(Cc2ccc(Cl)cc2Cl)c2ccccc12 [Lonidamine]
- AC50 [1, 13]: 68 µM
- AC50 [3, 12]: 66 µM

SMILES: Cc1nc(N)nc(N)c1-c1ccc(Cl)c(Cl)c1 [Methodichlorophen]
- AC50 [3]: 2.3 ± 0.41 µM

SMILES: Clc1ccc(C(c2ccccc2Cl)C(Cl)Cl)cc1 (stereo not drawn) [Mitotane]
- CYP2C9 Efficacy (in parenthesis) [7]: 10.57 ± 0.69 (-106 ± 4) %
- CYP2C19 Efficacy (in parenthesis) [5]: 0.82 ± 0.15 (-131 ± 13) %
- CYP2D6 Efficacy (in parenthesis) [8]: 32.45 ± 5.84 (-38 ± 9) %
- AC50 [1, 13]: 10.6 µM
- IC50 [1, 9]: 10.6 µM
- AC50 [2]: 0.82 µM
- IC50 [2, 10]: 0.82 µM
- AC50 [3, 12]: 32.4 µM
- IC50 [3, 11]: 32.4 µM

SMILES: C[C@@H]1C[C@H]2[C@@H]3CCC4=CC(=O)C=C[C@]4(C)[C@@]3(Cl)[C@@H](O)C[C@]2(C)[C@@]1(OC(=O)c1ccco1)C(=O)CCl [Mometasone furoate, reference compound]
- IC50 [1, 9]: 8.08 µM
- IC50 [2, 10]: 7.97 µM
- IC50 [3, 11]: 3.75 µM

SMILES: Cc1c(O)cccc1C(=O)N[C@@H](CSc1ccccc1)[C@H](O)CN1C[C@H]2CCCC[C@H]2C[C@H]1C(=O)NC(C)(C)C [Nelfinavir mesylate]
- IC50 [1, 9]: 19.1 µM
- IC50 [2, 10]: 42.1 µM
- IC50 [3, 11]: 14.4 µM

SMILES: O=C(OCC1(COC(=O)c2cccnc2)CCCC(COC(=O)c2cccnc2)(COC(=O)c2cccnc2)C1O)c1cccnc1 [Nicomolol]
- IC50 [1, 9]: 8.67 µM
- IC50 [2, 10]: 23.3 µM
- IC50 [3, 11]: 22.4 µM

SMILES: COc1ccc2c(c1OC)C(=O)O[C@@H]2[C@H]1c2c(cc3c(c2OC)OCO3)CCN1C [Noscapine]
- IC50 [1, 9]: 0.84 µM
- IC50 [2, 10]: 1.38 µM
- IC50 [3, 11]: 12.9 µM

SMILES: CN1CCCN=C1COC(=O)C(O)(c1ccccc1)C1CCCCC1 (stereo not drawn) [Oxyphencyclimine hydrochloride]
- IC50 [6]: 14.6 µM
- IC50 [3]: 0.92 µM

SMILES: CC[N+](C)(CC)CCOC(=O)C(O)(c1ccccc1)C1CCCCC1 (stereo not drawn) [Oxyphenonium bromide]
- IC50 [3, 11]: 0.87 µM

SMILES: CC(N/C(=N\C#N)Nc1ccncc1)C(C)(C)C (stereo not drawn) [Pinacidil monohydrate]
- CYP2C9 Efficacy (in parenthesis) [7]: 13.86 ± 1.59 (-102 ± 3) %
- CYP2C19 Efficacy (in parenthesis) [5]: 2.06 ± 0.47 (-116 ± 6) %
- CYP2D6 Efficacy (in parenthesis) [8]: 25.27 ± 7.04 (-50 ± 9) %
- IC50 [1, 9]: 13.9 µM
- IC50 [2, 10]: 2.06 µM
- IC50 [3, 11]: 25.3 µM

SMILES: CC1CCCC(C)N1CCCC(O)(c1ccccc1)c1ccccn1 (stereo not drawn) [Pirmenol]
- IC50 [3, 11]: 0.92 µM

SMILES: CC[C@@H]([C@H](C)O)n1ncn(-c2ccc(N3CCN(c4ccc(OC[C@@H]5CO[C@@](Cn6cncn6)(c6ccc(F)cc6F)C5)cc4)CC3)cc2)c1=O [Posaconazole]
- IC50 [3]: 11.3 ± 3.6 µM

SMILES: CC(C)[N+](C)(CCOC(=O)C1c2ccccc2Oc2ccccc21)C(C)C [Propantheline bromide]
- AC50 [3, 12]: 0.19 µM
- IC50 [3, 11]: 0.09 µM

SMILES: Cn1cc(C(=O)[C@@H]2CCc3nc[nH]c3C2)c2ccccc21 [Ramosetron hydrochloride]
- AC50 [6]: 17.4 µM
- AC50 [1]: 10.7 ± 4.21 µM
- AC50 [3]: 17.4 µM

SMILES: C=C(C)[C@H]1Cc2c(ccc3c2O[C@@H]2COc4cc(OC)c(OC)cc4[C@@H]2C3=O)O1 [Rotenone]
- IC50 [1]: 9.2 µM
- IC50 [2, 10]: 1.04 µM
- IC50 [3]: 37.7 µM

SMILES: CCCc1nn(C)c2c(=O)[nH]c(-c3cc(S(=O)(=O)N4CCN(C)CC4)ccc3OCC)nc12 [Sildenafil citrate]
- IC50 [1, 9]: 20.6 µM
- IC50 [2, 10]: 30.4 µM
- IC50 [3, 11]: 31.7 µM

SMILES: CC[N+](CC)(CC)CCOc1ccc(/C=C/c2ccccc2)cc1 [Stilonium iodide]
- AC50 [3, 12]: 15.5 µM

SMILES: CCOc1ccccc1OCCN[C@H](C)Cc1ccc(OC)c(S(N)(=O)=O)c1 [Tamsulosin hydrochloride]
- IC50 [3, 11]: 12.8 µM

SMILES: OC(CCN1CCCCC1)(c1ccccc1)C1CCCCC1 (stereo not drawn) [Trihexyphenidyl hydrochloride]
- IC50 [2, 10]: 17.2 µM
- IC50 [3, 11]: 0.76 µM

SMILES: CC1(C)CCC(=Cc2ccc(Cl)cc2)C1(O)Cn1cncn1 (stereo not drawn) [Triticonazole]
- CYP2C9 Efficacy (in parenthesis) [7]: 1.47 ± 0.17 (-105 ± 3) %
- CYP2C19 Efficacy (in parenthesis) [5]: 0.34 ± 0.15 (-129 ± 16) %
- CYP2D6 Efficacy (in parenthesis) [8]: 9.5 ± 2.8 (-97 ± 3) %
- IC50 [1, 9]: 1.47 µM
- IC50 [2, 10]: 0.34 µM
- IC50 [3, 11]: 9.5 µM

SMILES: COc1ccccc1N1CCN(CCCNc2cc(=O)n(C)c(=O)n2C)CC1 [Urapidil hydrochloride]
- AC50 [3, 12]: 14 µM

SMILES: C=CCOC(Cn1ccnc1)c1ccc(Cl)cc1Cl (stereo not drawn) [imazalil]
- IC50 [1, 9]: 0.77 µM
- IC50 [2, 10]: 0.15 µM
- IC50 [3, 11]: 6.12 µM

SMILES: CC(CCc1ccccc1)NCC(O)c1ccc(O)c(C(N)=O)c1 (stereo not drawn) [labetalol, reference compound]
- IC50 [3]: 0.6 µM

SMILES: Clc1ccc(C(c2ccccc2Cl)C(Cl)Cl)cc1 (stereo not drawn) [o,p'-DDD]
- AC50 [1, 13]: 16.8 µM
- AC50 [2]: 1.05 µM
- AC50 [3, 12]: 31.2 µM

SMILES: CC(CN(C)C)CN1c2ccccc2CCc2ccccc21 (stereo not drawn) [trimipramine, reference compound]
- IC50 ([3]; IC50 CYP2D6 assay): 3.1 µM
